Target: T1, Jarid1B (Homo sapiens, UniProt Q9UGL1)
T1 construct: purchased BPS Bioscience or custom made by MolecularThroughput 50121
T1 sequence (Q9UGL1 2-751): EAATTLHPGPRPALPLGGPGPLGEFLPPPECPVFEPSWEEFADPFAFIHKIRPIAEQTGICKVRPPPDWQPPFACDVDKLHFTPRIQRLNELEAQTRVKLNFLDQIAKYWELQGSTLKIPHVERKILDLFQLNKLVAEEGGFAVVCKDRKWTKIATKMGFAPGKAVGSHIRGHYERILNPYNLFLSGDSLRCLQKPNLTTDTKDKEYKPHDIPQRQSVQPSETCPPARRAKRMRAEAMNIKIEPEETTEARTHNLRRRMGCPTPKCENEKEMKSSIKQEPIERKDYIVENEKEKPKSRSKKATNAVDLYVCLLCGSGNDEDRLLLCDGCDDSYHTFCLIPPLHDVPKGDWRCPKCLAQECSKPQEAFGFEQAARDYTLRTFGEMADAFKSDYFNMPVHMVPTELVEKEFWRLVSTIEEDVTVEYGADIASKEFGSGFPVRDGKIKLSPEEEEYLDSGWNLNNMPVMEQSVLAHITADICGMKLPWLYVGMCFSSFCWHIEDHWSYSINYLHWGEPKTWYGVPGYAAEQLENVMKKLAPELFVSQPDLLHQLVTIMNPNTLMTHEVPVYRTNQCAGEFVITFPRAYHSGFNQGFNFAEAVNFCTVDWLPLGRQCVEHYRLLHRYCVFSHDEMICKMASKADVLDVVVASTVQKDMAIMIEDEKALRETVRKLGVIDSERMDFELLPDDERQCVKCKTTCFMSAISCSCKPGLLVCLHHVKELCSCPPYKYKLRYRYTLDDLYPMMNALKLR
Test: Jarid1B in vitro enzyme inhibition assay (TR-FRET)
Type: biochemical
In short: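 Jarid1B (AA 2-751, baculovirus-expressed) at 0.8 nM with 300 nM biotin-H3K4me3 peptide and 2 μM α-ketoglutarate in HEPES pH 7.3 with ascorbate and Fe(II), 30 min at room temperature. Stopped with EDTA; H3K4me1-2 product detected by TR-FRET (665/615 ratio) and IC50 fitted from 11-point dilutions.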

Row | SMILES | IC50 [nM]
1 | O=S(=O)(c1ccccc1)N1CC[C@@H](n2cc(Oc3nc(O)c4ccncc4n3)cn2)C1 [Example 128, 2-({1-[(3R)-1-(benzenesulfonyl)pyrrolidin-3-yl]-1H-pyrazol-4-yl}oxy)pyrido[3,4-d]pyrimidin-4-ol] | ≤ 100
2 | Oc1nc(Oc2ccc(Cl)c(Cl)c2)nc2cnccc12 [Example 114, 2-(3,4-dichlorophenoxy)pyrido[3,4-d]pyrimidin-4-ol] | ≤ 100
3 | N#CCC(=O)N1CCC[C@@H](n2cc(Oc3nc(O)c4ccncc4n3)cn2)C1 [Example 154, 3-[(3R)-3-[4-({4-hydroxypyrido[3,4-d]pyrimidin-2-yl}oxy)-1H-pyrazol-1-yl]piperidin-1-yl]-3-oxopropanenitrile] | ≤ 100
4 | Oc1nc(Oc2cnn([C@H]3CCN(c4ccccc4F)C3)c2)nc2cnccc12 [Example 147, 2-({1-[(3S)-1-(2-fluorophenyl)pyrrolidin-3-yl]-1H-pyrazol-4-yl}oxy)pyrido[3,4-d]pyrimidin-4-ol] | ≤ 100
5 | N#CCC(=O)N1CCC[C@H](n2cc(Oc3nc(O)c4ccncc4n3)cn2)C1 [Example 166, 3-[(3S)-3-[4-({4-hydroxypyrido[3,4-d]pyrimidin-2-yl}oxy)-1H-pyrazol-1-yl]piperidin-1-yl]-3-oxopropanenitrile] | ≤ 100
6 | Oc1nc(Oc2cnn(Cc3ccccc3Cl)c2)nc2cnccc12 [Example 121, 2-({1-[(2-chlorophenyl)methyl]-1H-pyrazol-4-yl}oxy)pyrido[3,4-d]pyrimidin-4-ol] | ≤ 100
7 | CC(Cc1ccccc1)Oc1nc(O)c2ccncc2n1 (stereo not shown) [Example 19, 2-(1-phenylpropan-2-yloxy)pyrido[3,4-d]pyrimidin-4-ol] | 1000 to 10000
8 | Cn1cnc(-c2nccc3c(O)nc(Oc4ccc(Cl)c(Cl)c4)nc23)c1 [Example 113, 2-(3,4-dichlorophenoxy)-8-(1-methyl-1H-imidazol-4-yl)pyrido[3,4-d]pyrimidin-4-ol] | ≤ 100
9 | O=S(=O)(C1CC1)N1CCCC(n2cc(Oc3nc(O)c4ccncc4n3)cn2)C1 (stereo in doubt) [Example 151, 2-({1-[(3S)-1-(cyclopropanesulfonyl)piperidin-3-yl]-1H-pyrazol-4-yl}oxy)pyrido[3,4-d]pyrimidin-4-ol] | ≤ 100
10 | O=C(C1CC1)N1CCC[C@H](n2cc(Oc3nc(O)c4ccncc4n3)cn2)C1 [Example 165, 2-({1-[(3S)-1-cyclopropanecarbonylpiperidin-3-yl]-1H-pyrazol-4-yl}oxy)pyrido[3,4-d]pyrimidin-4-ol] | ≤ 100
11 | Oc1nc(Oc2cnn([C@@H]3CCCNC3)c2)nc2cnccc12 [Example 149, 2-({1-[(3R)-piperidin-3-yl]-1H-pyrazol-4-yl}oxy)pyrido[3,4-d]pyrimidin-4-ol] | ≤ 100
12 | C[C@@H](c1ccccc1F)n1cc(Oc2nc(O)c3ccncc3n2)cn1 [Example 120, 2-({1-[(1s)-1-(2-fluorophenyl)ethyl]-1H-pyrazol-4-yl}oxy)pyrido[3,4-d]pyrimidin-4-ol] | ≤ 100
13 | CCC(Oc1nc(O)c2ccnc(-c3cn(C)cn3)c2n1)C(F)(F)F (stereo not shown) [Example 110, 8-(1-methyl-1H-imidazol-4-yl)-2-[(1,1,1-trifluorobutan-2-yl)oxy]pyrido[3,4-d]pyrimidin-4-ol] | 100 to 1000
14 | O=C(c1ccccc1)N1CCC[C@H](n2cc(Oc3nc(O)c4ccncc4n3)cn2)C1 [Example 167, 2-({1-[(3S)-1-benzoylpiperidin-3-yl]-1H-pyrazol-4-yl}oxy)pyrido[3,4-d]pyrimidin-4-ol] | ≤ 100
15 | O=C(c1ccccc1)N1CCC[C@@H](n2cc(Oc3nc(O)c4ccncc4n3)cn2)C1 [Example 157, 2-({1-[(3R)-1-benzoylpiperidin-3-yl]-1H-pyrazol-4-yl}oxy)pyrido[3,4-d]pyrimidin-4-ol] | ≤ 100
16 | CC(=O)N1CC[C@H](n2cc(Oc3nc(O)c4ccncc4n3)cn2)C1 [Example 139, 1-[(3S)-3-[4-({4-hydroxypyrido[3,4-d]pyrimidin-2-yl}oxy)-1H-pyrazol-1-yl]pyrrolidin-1-yl]ethan-1-one] | ≤ 100

Source: patent US10526327B2, “Histone demethylase inhibitors” (CELGENE QUANTICEL RESEARCH, INC., priority 2013, dated 2020)
